Test results published in publication PMC7646544, “Scaffold hopping and optimisation of 3’,4’-dihydroxyphenyl- containing thienopyrimidinones: synthesis of quinazolinone derivatives as novel allosteric inhibitors of HIV-1 reverse transcriptase-associated ribonuclease H” (Journal of Enzyme Inhibition and Medicinal Chemistry, 2020).
Where two headings read alike, the source gives them in different places.

Key:
[1] = target: T1, wt HIV-1 RT-associated RNase H (Human immunodeficiency virus type 1 group M subtype B, UniProt P04585); assay: RNase H inhibitor analysis, wild type RT (fluorescent RNA/DNA hybrid); assay type: biochemical; details: for IC50: wild type RT
T1 construct: dynamics at the p66/p51 HIV-1 RT-RNase H dimer interface; made in house
Procedure: All assays were performed in triplicate.

[2] = target: T2, p66/p51C280A mutant HIV-1 RNase H (Human immunodeficiency virus type 1 group M subtype B, UniProt P04585, C867A); assay: RNase H inhibitor analysis, p66/p51 C280A mutant RT
Procedure: IC50 values were determined as previously reported[31] using an 18-nt 3′-fluorescein-labeled RNA annealed to a complementary 18-nt 5′-dabcyl-labeled DNA. To a 96-well plate was added 1 μL of each inhibitor (in DMSO), followed by 10 μL of the appropriate RT (15−80 ng/mL) in reaction buffer. […] Wells containing only DMSO was used as negative control. […] IC50 values were determined using Prism5 (GraphPad Software, San Diego, CA). All assays were performed in triplicate.

[3] = target: T3, HIV-1 IN in the presence of LEDGF/p75 (Human immunodeficiency virus type 1 group M subtype B, UniProt P04585); assay: HTRF IN LEDGF/p75-dependent assay; assay type: biochemical
T3 construct: made in house
Procedure: The IN LEDGF/p75-dependent assay measures inhibition of IN activity in the presence of LEDGF/p75 protein[35–37]. Briefly, 50 nM IN was pre-incubated with increasing concentration of compounds for 1 h at room temperature in reaction buffer containing 20 mM HEPES pH 7.5, 1 mM DTT, 1% Glycerol, 20 mM MgCl2, 0.05% Brij-35 and 0.1 mg/ml BSA. To this mixture, 9 nM DNA donor substrate (5′-[…]-Biotin-3′ annealed with 5′-[…]-Biotin3’) and 50 nM DNA acceptor substrate (5′-Cy5-[…]-3′ annealed with 5′-Cy5- […]-3′) and 50 nM LEDGF/p75 were added and incubated at 37 °C for 90 min.

[4] = target: T4, HIV-1 RT-associated RDDP (Human immunodeficiency virus type 1 group M subtype B, UniProt P04585); assay: HIV-1 RNA-dependent DNA polymerase activity determination; assay type: biochemical; details: wt RT, poly(A)-oligo(dT)
T4 construct: dynamics at the p66/p51 HIV-1 RT-RNase H dimer interface; made in house
Procedure: HIV-1 RT-associated RDDP activity was measured as described[17]^,[38]. Briefly, in 25 μL volume containing 60 mM Tris-HCl pH 8.1, 8 mM MgCl2, 60 mM KCl, 13 mM DTT, poly(A)-oligo(dT), 100 μM dTTP, and 6 ng wt RT. After enzyme addition, the reaction mixture was incubated for 30 min at 37 °C and stopped by addition of EDTA. […] All assays were performed in triplicate.

[5] = tested on: HIV-1RF isolate in CEM-SS cells; assay: Antiviral activity, XTT-based cell viability assay; details: for selectivity index (SI): CC50/EC50, CEM-SS cells; for EC50: Human immunodeficiency virus 1, HIV-1RF, CEM-SS cells, XTT
Procedure: (§1) Antiviral activity of selected thienopyrimidinones was determined via the 2,3-bis[2-methoxy-4-nitro-5-sulfophenyl]-5-[(phenylamino)carbonyl]-2H tetrazolium hydroxide (XTT)-based cell viability assay of Weislow et al.[45], using the HIV-1RF isolate and human T-cell line CEM-SS.

[6] = Cytotoxicity in XTT-based cell viability assay; details: human, CEM-SS T cells
Procedure: as §1

[7] = target: T5, HIV-1 RT-associated RNase H (Human immunodeficiency virus type 1 group M subtype B, UniProt P04585); assay: Yonetani-Theorell analysis on RNase H activity; assay type: biochemical; details: combination of compound 11 and compound 24
T5 construct: dynamics at the p66/p51 HIV-1 RT-RNase H dimer interface; made in house
Procedure: Yonetani–Theorell analysis[43] was performed as reported. Briefly, HIV RT-associated RNase H activity was measured in 100 µL reaction volume containing 50 mM Tris–HCl buffer pH 7.8, 6 mM MgCl2, 1 mM dithiothreitol (DTT), 80 mM KCl, 0.25 µM hybrid RNA/DNA 5′-[…]-Fluorescin-3′ (HPLC, dry, QC: Mass Check) (available from Metabion) 5′-Dabcyl-[…]-3′(HPLC, dry, QC: Mass Check), and different amount of enzymes according to a linear range of dose-response curve: 20 ng of WT RT, and increasing concentrations of inhibitor (diluted) in water and incubated for 1 h at 37 °C, at 200 rpm. Products were measured with a multilabel counter plate reader Victor 3 (Perkin Elmer model 1420-051) equipped with filters for 490/528 nm (excitation/emission wavelength). A calibration curve for the fluorescein signal was generated in parallel, calculating pmols of product generated by the reaction. The reciprocal of the reaction product was plotted vs. the compound concentration a different condition using the Sigma-Plot software.

[8] = target: T1, wt HIV-1 RT-associated RNase H; details: wild type RT, cited from earlier work
[9] = target: T2, p66/p51C280A mutant HIV-1 RNase H; parameters: made in house; method as in PMID 24261890; details: p66/p51 C280A mutant RT; cited from earlier work

Structure (SMILES) | IC50 [1] [µM] | IC50 [2] [nM] | IC50 [3] [µM] | IC50 [4] [µM] | also measured
Nc1ccc(-c2nc3ccccc3c(=O)[nH]2)cc1N [Compound 20, 2–(3,4-diaminophenyl)quinazolin-4(3H)-one] | > 50 |  |  |  | 
O=c1[nH]c(-c2ccc(O)c(O)c2)nc2ccc([N+](=O)[O-])cc12 [Compound 13, 2–(3,4-dihydroxyphenyl)-6-nitroquinazolin-4(3H)-one] | 0.31 ± 0.01 | 170 ± 4 | 23.2 ± 0.8 | 99 ± 1 | 
O=C1NC(c2ccc(O)c(O)c2)Nc2ccc(Cl)cc21 (stereo not shown) [Compound 14, 6-chloro-2–(3,4-dihydroxyphenyl)-2,3-dihydroquinazolin-4(1H)-one] | 0.56 ± 0.25 | 400 ± 30 | > 100 | > 100 | 
O=c1[nH]c(-c2ccc(O)c(O)c2)nc2ccc(F)cc12 [Compound 12, 2–(3,4-dihydroxyphenyl)-6-fluoroquinazolin-4(3H)-one] | 0.52 ± 0.06 | 840 ± 30 | 6.61 ± 0.93 | > 100 | 
Cc1ccc2c(=O)[nH]c(-c3ccc(O)c(O)c3)nc2c1 [Compound 3, 2–(3,4-dihydroxyphenyl)-7-methylquinazolin-4(3H)-one] | 0.5 ± 0.02 | 230 ± 20 | 2.35 ± 0.44 | 60 ± 9 | selectivity index (SI) [5]: 2; EC50 [5]: 12000 nM; CC50 [6]: 25000 nM
O=c1[nH]c(-c2ccc(O)c(O)c2)nc2ccc(Br)cc12 [Compound 9, 2–(3,4-dihydroxyphenyl)-6-bromoquinazolin-4(3H)-one] | 0.45 ± 0.008 | 400 ± 10 | 7 ± 2 | 46 ± 3 | 
Nc1ccc(-c2nc3ccccc3c(=O)[nH]2)cc1O [Compound 19, 2-(4-amino-3-hydroxyphenyl)quinazolin-4(3H)-one] | > 50 |  |  |  | 
O=c1[nH]c(-c2ccc(O)c(O)c2)nc2ncccc12 [Compound 16, 2–(3,4-dihydroxyphenyl)pyrido[2,3-d]pyrimidin-4(3H)-one] | 2.4 ± 1.6 | 2000 ± 100 | 0.69 ± 0.19 | 38 ± 4 | 
O=c1[nH]c(-c2ccc(O)c(O)c2)nc2sc3c(c12)CCCCC3 [Compound 24, 2–(3,4-dihydroxyphenyl)-3,5,6,7,8,9-hexahydro-4H-cyclohepta[4,5]thieno[2,3-d]pyrimidin-4-one, reference compound] |  |  |  |  | interaction constant α [7]: greater than 1; simultaneous inhibition of RNase H (Yonetani-Theorell) [7]: not kinetically mutually exclusive
Oc1ccc(-c2ccc3ccccc3c2)cc1O [Compound 23, 4-(naphthalen-2-yl)benzene-1,2-diol] | 0.71 ± 0.03 | 1200 ± 40 |  |  | selectivity index (SI) [5]: 2; EC50 [5]: 14000 nM; CC50 [6]: 26000 nM; fold more potent than the reported compound 17 ([1]; wt RT RNase H): 5 fold
COc1cc2nc(-c3ccc(O)c(O)c3)[nH]c(=O)c2cc1OC [Compound 5, 2–(3,4-dihydroxyphenyl)-6,7-dimethoxyquinazolin-4(3H)-one] | 0.73 ± 0.02 | 330 ± 3 | 6.5 ± 2.5 | > 100 | 
O=C(O)c1ccc(-c2nc3ccccc3c(=O)[nH]2)cc1O [Compound 18, 2-hydroxy-4-(4-oxo-3,4-dihydroquinazolin-2-yl)benzoic acid] | 13.6 ± 0.3 |  |  |  | 
Cc1ccc2nc(-c3ccc(O)c(O)c3)[nH]c(=O)c2c1 [Compound 2, 2–(3,4-dihydroxyphenyl)-6-methylquinazolin-4(3H)-one] |  |  | 4.3 ± 1.5 | > 100 | IC50 ([8]; read-out: IC50 WT RNase H): 0.41 ± 0.01 µM; IC50 [9]: 370 ± 10 nM
COc1ccc2nc(-c3ccc(O)c(O)c3)[nH]c(=O)c2c1 [Compound 4, 2–(3,4-dihydroxyphenyl)-6-methoxyquinazolin-4(3H)-one] | 0.57 ± 0.02 | 410 ± 10 | 8.5 ± 0.3 | 57 ± 3 | 
O=c1[nH]c(-c2ccc(O)c(O)c2)nc2ccccc12 [Compound 17, 2–(3,4-dihydroxyphenyl)quinazolin-4(3H)-one] |  |  | 1.44 ± 0.4 | 70 ± 1 | fold less potent HIV-1 RNase H inhibitor ([1]; compared with decorated quinazolinone 2): 8 fold; IC50 ([8]; read-out: IC50 (µM) WT RNase H): 3.46 ± 0.47 µM
O=c1[nH]c(-c2ccc(O)c(O)c2)nc2ccc(-c3ccccc3)cc12 [Compound 6, 2–(3,4-dihydroxyphenyl)-6-phenylquinazolin-4(3H)-one] | 0.37 ± 0.01 | 290 ± 6 | 89 ± 10 | 63 ± 11 | 
O=c1[nH]c(-c2ccc(O)c(O)c2)nc2ccc(I)cc12 [Compound 8, 2–(3,4-dihydroxyphenyl)-6-iodoquinazolin-4(3H)-one] | 0.15 ± 0.01 | 120 ± 1 | 3.4 ± 0.83 | 26.7 ± 2.2 | selectivity index (SI) [5]: 2; EC50 [5]: 8300 nM; CC50 [6]: 17000 nM
O=c1[nH]c(-c2ccc(O)c(O)c2)nc2cc(Cl)ccc12 [Compound 11, 2–(3,4-dihydroxyphenyl)-7-chloroquinazolin-4(3H)-one] | 0.43 ± 0.01 | 660 ± 50 | 7.2 ± 0.7 | > 100 | selectivity index (SI) [5]: 3; EC50 [5]: 1800 nM; interaction constant α [7]: greater than 1; simultaneous inhibition of RNase H (Yonetani-Theorell) [7]: not kinetically mutually exclusive; CC50 [6]: 6000 nM
O=c1[nH]c(-c2ccc([N+](=O)[O-])c(O)c2)nc2ccccc12 [Compound 21, 2–(3-hydroxy-4-nitrophenyl)quinazolin-4(3H)-one] | > 50 |  |  |  | 
O=c1[nH]c(-c2ccc(O)c(O)c2)nc2cc3ccccc3cc12 [Compound 7, 2–(3,4-dihydroxyphenyl)benzo[g]quinazolin-4(3H)-one] | 1.1 ± 0.04 | 510 ± 50 | 31.5 ± 6.5 | 23.4 ± 0.5 | 
Cc1sc2nc(-c3ccc(O)c(O)c3)[nH]c(=O)c2c1C [Compound 1, 2-(3,4-dihydroxyphenyl)-5,6-dimethylthieno[2,3-d]pyrimidin-4(3H)-one, reference compound] |  |  |  |  | IC50 [9]: 320 nM
Oc1ccc(-c2ccc3ccccc3n2)cc1O [Compound 22, 4-(quinolin-2-yl)benzene-1,2-diol] | 2.9 ± 0.89 | 610 ± 220 |  |  | fold more potent on C280A mutant RT RNase H than wt RT ([2]; C280A vs wt): 4 fold
O=c1[nH]c(-c2ccc(O)c(O)c2)nc2c1oc1ccccc12 [Compound 15, 2–(3,4-dihydroxyphenyl)benzofuro[3,2-d]pyrimidin-4(3H)-one] | 0.64 ± 0.03 | 390 ± 10 | 5.35 ± 0.35 | 25.3 ± 6.3 | 
O=c1[nH]c(-c2ccc(O)c(O)c2)nc2ccc(Cl)cc12 [Compound 10, 2–(3,4-dihydroxyphenyl)-6-chloroquinazolin-4(3H)-one] | 0.31 ± 0.01 | 200 ± 10 | 3.4 ± 0.6 | 30.5 ± 0.4 | selectivity index (SI) [5]: 4; EC50 [5]: 5400 nM; CC50 [6]: 22000 nM
